As a reminder, the Ki is a dissociation constant, usually derived from enzyme kinetics or from competition with a known ligand.

In this test the target is T1, human NEP (Homo sapiens, UniProt P08473).
T1 construct: purchased R&D Systems, Minneapolis, Minn; 1182-ZN
T1 sequence (P08473 whole entry): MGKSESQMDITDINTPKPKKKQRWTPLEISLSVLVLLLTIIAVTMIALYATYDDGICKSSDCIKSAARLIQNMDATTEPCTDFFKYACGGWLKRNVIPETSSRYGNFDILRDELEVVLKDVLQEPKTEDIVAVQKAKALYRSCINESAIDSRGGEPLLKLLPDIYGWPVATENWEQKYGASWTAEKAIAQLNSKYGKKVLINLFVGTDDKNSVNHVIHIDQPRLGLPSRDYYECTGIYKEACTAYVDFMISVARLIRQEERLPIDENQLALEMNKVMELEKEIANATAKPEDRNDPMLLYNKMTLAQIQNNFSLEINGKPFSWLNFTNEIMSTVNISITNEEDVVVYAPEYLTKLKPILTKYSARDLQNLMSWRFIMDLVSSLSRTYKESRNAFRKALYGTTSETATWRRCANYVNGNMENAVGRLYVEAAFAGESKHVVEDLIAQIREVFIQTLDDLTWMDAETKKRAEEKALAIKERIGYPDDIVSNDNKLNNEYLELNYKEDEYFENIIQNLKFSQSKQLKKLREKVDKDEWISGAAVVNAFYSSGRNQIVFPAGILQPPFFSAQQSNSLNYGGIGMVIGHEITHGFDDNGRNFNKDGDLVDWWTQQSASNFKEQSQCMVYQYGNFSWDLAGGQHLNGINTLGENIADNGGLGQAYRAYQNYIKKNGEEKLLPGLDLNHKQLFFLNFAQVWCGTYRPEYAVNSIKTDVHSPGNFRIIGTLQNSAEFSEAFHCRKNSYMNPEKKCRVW
Description: In vitro enzyme inhibition assay at human NEP (Assay 1). Type of test: biochemical. As to conditions: recombinant enzyme, fluorogenic peptide substrate, 37° C. A digest of the protocol:
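Recombinant enzyme preincubated with compound 30 min at 37 °C, then 10 μM Mca-D-Arg-Arg-Leu-Dap-(Dnp)-OH added in 50 mM HEPES pH 7.5, 100 mM NaCl, 0.01% Tween-20, 10 μM ZnSO4; stopped after 20 min with acetic acid. Fluorescence read at 320/405 nm; Ki from nonlinear fit of v=v0/[1+(I/K′)], reported as pKi.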
On to `O=C(NN(Cc1ccc(-c2ccccc2)cc1)C[C@@H](O)C(=O)O)c1cc(C(=O)O)n(Cc2c(F)cc(Cl)cc2F)n1` [Example 2-17, 5-[N′-Biphenyl-4-ylmethyl-N′-((R)-2-carboxy-2-hydroxyethyl)-hydrazinocarbonyl]-2-(4-chloro-2,6-difluorobenzyl)-2H-pyrazole-3-carboxylic acid], for which the Ki was 0.0126 to 0.1 µM.

Regarding `O=C(NN(Cc1ccc(-c2cc(Cl)ccc2F)cc1)C[C@@H](O)C(=O)O)c1nn(-c2ccccc2)c(=O)[nH]1` [Example 8-64, (R)-3-[N-(5′-Chloro-2′-fluoro-biphenyl-4-ylmethyl)-N′-(5-oxo-1-phenyl-4,5-dihydro-1H-[1,2,4]triazole-3-carbonyl)-hydrazino]-2-hydroxy-propionic acid], the Ki was no more than 0.001 µM.

Take `O=C(NN(Cc1ccc(-c2cccc(Cl)c2F)cc1)C[C@@H](O)C(=O)O)c1cc(O)no1` [Example 8-21, (R)-3-[N-(3′-Chloro-2′-fluoro-biphenyl-4-ylmethyl)-N′-(3-hydroxy-isoxazole-5-carbonyl)-hydrazino]-2-hydroxy-propionic acid]: the Ki was 0.00126 to 0.01 µM. As for `CC(=O)c1cc(C(=O)NN(Cc2ccc(-c3cccc(Cl)c3)cc2)C[C@@H](O)C(=O)O)[nH]n1` [Example 4-25, (R)-3-[N′-(5-Acetyl-2H-pyrazole-3-carbonyl)-N-(3′-chlorobiphenyl-4-ylmethyl)-hydrazino]-2-hydroxy-propionic acid], the figure is no more than 0.001 µM; as for `CCCCc1cc(C(=O)NN(Cc2ccc(-c3cccc(Cl)c3)cc2)C[C@@H](O)C(=O)O)[nH]n1` [Example 4-22, (R)-3-[N′-(5-Butyl-2H-pyrazole-3-carbonyl)-N-(3′-chlorobiphenyl-4-ylmethyl)-hydrazino]-2-hydroxy-propionic acid], no more than 0.001 µM; as for `O=C(NN(Cc1ccc(-c2cccc(Cl)c2)cc1)C[C@@H](O)C(=O)O)c1cnn[nH]1` [Example 4-3, (R)-3-[N-(3′-Chlorobiphenyl-4-ylmethyl)-N′-(3H-[1,2,3]triazole-4-carbonyl)-hydrazino]-2-hydroxy-propionic acid], 0.00126 to 0.01 µM. `O=C(NN(Cc1ccc(-c2ccccc2Cl)cc1)C[C@@H](O)C(=O)O)c1cc(O)no1` [Example 5-7, (R)-3-[N-(2′-Chloro-biphenyl-4-ylmethyl)-N′-(3-hydroxy-isoxazole-5-carbonyl)-hydrazino]-2-hydroxy-propionic acid]: the Ki was 0.00126 to 0.01 µM. Then `COc1cc(C(=O)NN(Cc2ccc(-c3cccc(Cl)c3)cc2)C[C@@H](O)C(=O)O)on1` [Example 4-32, (R)-3-[N-(3′-Chlorobiphenyl-4-ylmethyl)-N′-(3-methoxy-isoxazole-5-carbonyl)-hydrazino]-2-hydroxy-propionic acid], with 0.00126 to 0.01 µM; and `CC(=O)c1cc(C(=O)NN(Cc2ccc(-c3cc(Cl)ccc3C)cc2)C[C@H](O)C(=O)O)[nH]n1` [Example 8-47, (S)-3-[N′-(5-Acetyl-2H-pyrazole-3-carbonyl)-N-(5′-chloro-2′-methyl-biphenyl-4-ylmethyl)-hydrazino]-2-hydroxy-propionic acid], with 0.00126 to 0.01 µM. Then `CCOc1cc(C(=O)NN(Cc2ccc(-c3cc(Cl)ccc3F)cc2)C[C@@H](O)C(=O)O)n[nH]1` [Example 8-57, (R)-3-[N-(5′-Chloro-2′-fluoro-biphenyl-4-ylmethyl)-N′-(5-ethoxy-1H-pyrazole-3-carbonyl)-hydrazino]-2-hydroxy-propionic acid], with 0.00126 to 0.01 µM. Then `O=C(NN(Cc1ccc(-c2cccc(Cl)c2)cc1)C[C@@H](O)C(=O)O)c1cc(O)nc(O)n1` [Example 4-36, (R)-3-[N-(3′-Chlorobiphenyl-4-ylmethyl)-N′-(2,6-dihydroxy-pyrimidine-4-carbonyl)-hydrazino]-2-hydroxy-propionic acid], with 0.0126 to 0.1 µM. On to `O=C(NN(Cc1ccc(-c2cc(Cl)cc(Cl)c2)cc1)C[C@@H](O)C(=O)O)c1cn(O)nn1` [Example 8-81, (R)-3-[N-(3′,5′-Dichloro-biphenyl-4-ylmethyl)-N′-(1-hydroxy-1H-[1,2,3]triazole-4-carbonyl)-hydrazino]-2-hydroxy-propionic acid], for which the Ki is 0.0126 to 0.1 µM.

`O=C(NN(Cc1ccc(-c2cc(Cl)ccc2F)cc1)C[C@@H](O)C(=O)O)c1cn(O)nn1` [Example 8-76, (R)-3-[N-(5′-Chloro-2′-fluoro-biphenyl-4-ylmethyl)-N′-(1-hydroxy-1H-[1,2,3]triazole-4-carbonyl)-hydrazino]-2-hydroxy-propionic acid]: the Ki is no more than 0.001 µM.

Turning to `O=C(NN(Cc1ccc(-c2cc(Cl)ccc2F)cc1)C[C@@H](O)C(=O)O)c1nn(-c2ccccc2Cl)c(=O)[nH]1` [Example 8-66, (R)-3-{N-(5′-Chloro-2′-fluoro-biphenyl-4-ylmethyl)-N′-[1-(2-chloro-phenyl)-5-oxo-4,5-dihydro-1H-[1,2,4]triazole-3-carbonyl]-hydrazino}-2-hydroxy-propionic acid], the inhibition constant Ki is 0.00126 to 0.01 µM.

For `O=C(NN(Cc1ccc(-c2cc(Cl)ccc2F)cc1)C[C@@H](O)C(=O)O)c1cc(O)no1` [Example 8-8, (R)-3-[N-(5′-Chloro-2′-fluoro-biphenyl-4-ylmethyl)-N′-(3-hydroxy-isoxazole-5-carbonyl)-hydrazino]-2-hydroxy-propionic acid], the Ki was no more than 0.001 µM.

Consider `O=C(O)c1cc(C(=O)NN(Cc2ccc(-c3cccc(Cl)c3)cc2)C[C@@H](O)C(=O)O)nc(O)n1` [Example 4-38, 6-[N′-((R)-2-Carboxy-2-hydroxy-ethyl)-N′-(3′-chlorobiphenyl-4-ylmethyl)-hydrazinocarbonyl]-2-hydroxy-pyrimidine-4-carboxylic acid], for which the Ki was no more than 0.001 µM.

For the compound `O=C(NN(Cc1ccc(-c2cccc(Cl)c2)cc1)C[C@@H](O)C(=O)O)c1ccnc(O)n1` [Example 4-37, (R)-3-[N-(3′-Chlorobiphenyl-4-ylmethyl)-N′-(2-hydroxy-pyrimidine-4-carbonyl)-hydrazino]-2-hydroxy-propionic acid], the Ki was 0.0126 to 0.1 µM. As for `Cc1ccc(Cl)cc1-c1ccc(CN(C[C@@H](O)C(=O)O)NC(=O)c2cn(O)nn2)cc1` [Example 8-80, (R)-3-[N-(5′-Chloro-2′-methyl-biphenyl-4-ylmethyl)-N′-(1-hydroxy-1H-[1,2,3]triazole-4-carbonyl)-hydrazino]-2-hydroxy-propionic acid], the figure is no more than 0.001 µM.

In the case of `O=C(O)Cn1nc(C(=O)NN(Cc2ccc(-c3cc(Cl)ccc3F)cc2)C[C@@H](O)C(=O)O)cc1C1CC1` [Example 8-53, (R)-3-[N′-(1-Carboxymethyl-5-cyclopropyl-1H-pyrazole-3-carbonyl)-N-(5′-chloro-2′-fluoro-biphenyl-4-ylmethyl)-hydrazino]-2-hydroxy-propionic acid], the Ki is 0.00126 to 0.01 µM. As for `CC(C)CN(C)C(=O)c1cc(C(=O)NN(Cc2ccc(-c3cccc(Cl)c3)cc2)C[C@@H](O)C(=O)O)[nH]n1` [Example 4-16, (R)-3-{N-(3′-Chlorobiphenyl-4-ylmethyl)-N′-[5-(isobutyl-methyl-carbamoyl)-2H-pyrazole-3-carbonyl]-hydrazino}-2-hydroxy-propionic acid], the Ki was no more than 0.001 µM. For the compound `O=C(NN(Cc1ccc(-c2cc(Cl)ccc2F)cc1)C[C@@H](O)C(=O)O)c1cc(-c2ccccc2O)n[nH]1` [Example 8-38, (R)-3-{N-(5′-Chloro-2′-fluoro-biphenyl-4-ylmethyl)-N′-[5-(2-hydroxy-phenyl)-2H-pyrazole-3-carbonyl]-hydrazino}-2-hydroxy-propionic acid], the Ki is no more than 0.001 µM. On to `O=C(NN(Cc1ccc(-c2cccc(Cl)c2)cc1)C[C@H](O)C(=O)O)c1cc(O)no1` [Example 3K, (S)-3-[N-(3′-Chloro-biphenyl-4-ylmethyl)-N′-(3-hydroxyisoxazole-5-carbonyl)-hydrazino]-2-hydrox-propionic Acid], for which the Ki is no more than 0.001 µM. As for `O=C(NC1CC1)c1cc(C(=O)NN(Cc2ccc(-c3ccccc3)cc2)C[C@@H](O)C(=O)O)[nH]n1` [Example 2-4, (R)-3-[N-Biphenyl-4-ylmethyl-N′-(5-cyclopropylcarbamoyl-2H-pyrazole-3-carbonyl)-hydrazino]-2-hydroxypropionic acid], the figure is 0.0126 to 0.1 µM. As for `COc1ccc(Cl)cc1-c1ccc(CN(C[C@@H](O)C(=O)O)NC(=O)c2cc(O)no2)cc1` [Example 8-2, (R)-3-[N-(5′-Chloro-2′-methoxy-biphenyl-4-ylmethyl)-N′-(3-hydroxy-isoxazole-5-carbonyl)-hydrazino]-2-hydroxy-propionic acid], the figure is no more than 0.001 µM; as for `O=C(NN(Cc1ccc(-c2cc(Cl)ccc2F)cc1)C[C@@H](O)C(=O)O)c1cc(-c2cccc(F)c2)no1` [Example 8-13, (R)-3-{N-(5′-Chloro-2′-fluoro-biphenyl-4-ylmethyl)-N′-[3-(3-fluoro-phenyl)-isoxazole-5-carbonyl]-hydrazino}-2-hydroxy-propionic acid], no more than 0.001 µM; as for `O=C(NN(Cc1ccc(-c2ccccc2)cc1)C[C@@H](O)C(=O)O)c1cc(-c2ccccc2)n[nH]1` [Example 2-16, (R)-3-[N-Biphenyl-4-ylmethyl-N′-(5-phenyl-2H-pyrazole-3-carbonyl)-hydrazino]-2-hydroxypropionic acid], 0.0126 to 0.1 µM. Then `O=C(NN(Cc1ccc(-c2cccc(C(F)(F)F)c2)cc1)C[C@@H](O)C(=O)O)c1cc(O)no1` [Example 5-2, (R)-2-Hydroxy-3-[N′-(3-hydroxy-isoxazole-5-carbonyl)-N-(3′-trifluoromethyl-biphenyl-4-ylmethyl)-hydrazino]-propionic acid], with 0.0126 to 0.1 µM; and `O=C(NN(Cc1ccc(-c2ccccc2)cc1)C[C@@H](O)C(=O)O)c1cc(F)c2[nH]nnc2c1` [Example 2-23, (R)-3-[N-Biphenyl-4-ylmethyl-N′-(7-fluoro-1H-benzotriazole-5-carbonyl)-hydrazino]-2-hydroxypropionic acid], with 0.126 to 1 µM.

The values above are taken from patent US9873696B2, “Neprilysin inhibitors” (THERAVANCE BIOPHARMA R&D IP, LLC, priority 2010, dated 2018).
